Experimental data reported in paper PMC9552235.

Assay: Macrolactamisation (Trp/pyrroloindoline CO2H + Val NH2): HATU 1.2 equiv pre-activation, slow syringe-pump addition to Et3N (15 equiv; 1.2 equiv for 12), after TFA N-Boc removal
Details: CH2Cl2/DMF (10:1 to 40:1), 0.6 mM, 2 steps

## C=CC(C)(C)[C@@]12C[C@@H]3C(=O)N[C@@H](C(C)C)C(=O)Nc4ccccc4C(=O)N(c4ccccc41)[C@@H]2N3C(C)=O
From C=CC(C)(C)[C@]12C[C@H](C(=O)O)N(C(C)=O)[C@H]1N(C(=O)c1ccccc1NC(=O)[C@@H](N)C(C)C)c1ccccc12, 12-membered ring, 37.0 h
  ring closure, yield over several steps: 0%

## C=CC(C)(C)[C@@]12C[C@H]3C(=O)N[C@@H](C(C)C)C(=O)Nc4ccccc4C(=O)N(c4ccccc41)[C@@H]2N3C(C)=O [(S)-endo-40 -> L-Trp-regio-endo-4]
From C=CC(C)(C)[C@]12C[C@@H](C(=O)O)N(C(C)=O)[C@H]1N(C(=O)c1ccccc1NC(=O)[C@@H](N)C(C)C)c1ccccc12, 12-membered ring, 22.0 h
  ring closure, yield over several steps: 37%

## C=CC(C)(C)[C@]12C[C@H]3C(=O)N[C@@H](C(C)C)C(=O)Nc4ccccc4C(=O)N(c4ccccc41)[C@H]2N3C(C)=O [(S)-exo-40 -> L-Trp-regio-exo-4 (moderately pure, unstable)]
From C=CC(C)(C)[C@@]12C[C@@H](C(=O)O)N(C(C)=O)[C@@H]1N(C(=O)c1ccccc1NC(=O)[C@@H](N)C(C)C)c1ccccc12, 12-membered ring, 15.0 h
  ring closure, yield over several steps: 21%

## CC(=O)N[C@@H]1Cc2cn(c3ccccc23)C(=O)c2ccccc2NC(=O)[C@H](C(C)C)NC1=O [H-L-Val-(2-aminobenzoyl)-(N-indole)-Ac-D-Trp-OH]
From CC(=O)N[C@H](Cc1cn(C(=O)c2ccccc2NC(=O)[C@@H](N)C(C)C)c2ccccc12)C(=O)O, 13-membered ring, 84.0 h
  ring closure, yield over several steps: 14%

## C=CC(C)(C)[C@]12C[C@@H]3C(=O)N[C@@H](C(C)C)C(=O)Nc4ccccc4C(=O)N(c4ccccc41)[C@H]2N3C(C)=O [endo-40 -> D-Trp-regio-endo-4]
From C=CC(C)(C)[C@@]12C[C@H](C(=O)O)N(C(C)=O)[C@@H]1N(C(=O)c1ccccc1NC(=O)[C@@H](N)C(C)C)c1ccccc12, 12-membered ring, 24.0 h
  ring closure, yield over several steps: 61%
